{"source": "patent US5252322A", "about": "“Skin tanning compositions containing imidazoles” (The Gillette Company, priority 1992, dated 1993)", "key": {"[1]": {"test_system": "tyrosinase", "experiment": "Tyrosinase activity screening in S91 melanoma cell line", "format": "cell-based", "method": "(§1) A screening test is employed to select compounds in vitro before in vivo testing. The better compounds are found to stimulate higher levels of tyrosinase activity in cell cultures. Often the increase in tyrosinase activity is accompanied by a small decrease in cell number.\n(§2) To obtain more rapid results, the tests can be run with a melanoma cell line such as Cloudman S91 melanoma cells. However, if desired, normal human melanocytes (NHM) can also be employed. The compounds to be tested are added as aqueous solutions to the cell culture medium. After four days, the cells are harvested and counted, and a tyrosinase activity assay and a total protein determination are run on cell pellets."}, "[2]": {"test_system": "tyrosinase", "experiment": "Tyrosinase activity screening in normal human melanocytes (NHM)", "format": "cell-based", "settings": "NHM, 0.5, 10 and 50 mM", "method": "as §1, §2"}, "[3]": {"test_system": "tyrosinase", "experiment": "Tyrosinase activity assay of cell cultures stimulated with imidazole (cell line not stated)", "format": "cell-based", "settings": "four days, control (0 mM) 111.9", "method": "as §1, §2\nDose-response curves from tyrosinase assays of cells stimulated with imidazole have slopes of about 1.1."}, "[4]": {"test_system": "pigmented guinea pig skin", "experiment": "In vivo tanning test on pigmented guinea pig skin", "method": "To confirm the results of in vitro testing, in vivo testing was conducted on pigmented guinea pig skin. Five animals were used in each of the treatment or control groups.\n1. Animals were clipped in a suitably pigmented area over the back or flank and chemically depilated prior to the first treatments. The area was at least 4 cm^2. The treatment site was 3 cm^2 and was carefully marked. Photographs of areas to be treated were taken prior to initial treatments. Animals were clipped as needed throughout the study, depilation was only done prior to evaluations.\n2. Concentrations of imidazole of 0.1, 0.5, 1.0 and 2.0M were applied as a liquid in 50% EtOH. 100 μL volumes were applied via pipette and glass rod with minimal rubbing of the skin.\n3. Treatments were made daily, 5 days per week for 3 weeks. Visual observations and photographic records were made at the study midpoint and 24 hours after the last treatment. Animals were clipped and depilated prior to these evaluations.\n4. The animals were monitored for two weeks following the last treatment. At the end of the fifth week, animals were photographed."}}, "data": [{"smiles": "O=C1NCCN1", "note": "[2-imidazolidone]", "values": [{"measurement": "tyrosinase activity versus control", "setting": "[1]; at 50 mM (tested 0.5, 10, 50 mM)", "value": "slight increase"}, {"measurement": "tyrosinase activity versus control", "setting": "[2]", "value": "moderate inhibition"}]}, {"smiles": "N[C@@H](Cc1c[nH]cn1)C(=O)O", "note": "[L-histidine monochloride monohydrate]", "values": [{"measurement": "tyrosinase activity versus control", "setting": "[1]; at 0.5 mM (tested 0.5 and 10 mM)", "value": "increased tyrosinase activity"}]}, {"smiles": "O=C(O)Cc1c[nH]cn1", "note": "[4-imidazoleacetic acid]", "values": [{"measurement": "tyrosinase activity versus control", "setting": "[1]; 0.5 and 10 mM, may be due to acidic pH of test solutions", "value": "dose dependent decrease"}]}, {"smiles": "OCc1c[nH]cn1", "note": "[4-(hydroxymethyl)imidazole]", "values": [{"measurement": "tyrosinase activity versus control", "setting": "[1]; at 0.25 and 0.5 mM (tested 0.1, 0.25, 0.5 mM)", "value": "slightly increased"}]}, {"smiles": "c1c[nH]cn1", "note": "[imidazole]", "values": [{"measurement": "tyrosinase activity, DPM/1000 cells", "setting": "[3]; 0.5 mM", "value": 210.7, "unit": "DPM/1000 cells"}, {"measurement": "tyrosinase activity, DPM/1000 cells", "setting": "[3]; 1.0 mM", "value": 263.2, "unit": "DPM/1000 cells"}, {"measurement": "tyrosinase activity, DPM/1000 cells", "setting": "[3]; 5.0 mM", "value": 329.2, "unit": "DPM/1000 cells"}, {"measurement": "tyrosinase activity, DPM/1000 cells", "setting": "[3]; 10.0 mM", "value": 516.1, "unit": "DPM/1000 cells"}, {"measurement": "visual observation of treated sites (darkening)", "setting": "[4]; 0.1, 0.5, 1.0 and 2.0M in 50% EtOH, topical 100 μL daily, 5 days per week for 3 weeks", "value": "darkening for all areas"}, {"measurement": "skin irritation", "setting": "[4]; 2.0M solution in 50% EtOH, topical", "value": "appeared to mildly irritate the skin of some of the animals"}, {"measurement": "visual observation of treated sites (degree of tanning)", "setting": "[4]; at 0.5 to 1.0M in 50% EtOH, topical, 3 weeks", "value": "most tanning"}, {"measurement": "course of darkening over time", "setting": "[4]; daily topical treatments for 3 weeks", "value": "continued to increase through the third week"}, {"measurement": "number of treatments after which darkening was observed", "setting": "[4]; daily topical treatments, 5 days per week", "value": "5-10 treatments"}]}, {"smiles": "O=Cc1ncc[nH]1", "note": "[2-imidazolecarboxaldehyde]", "values": [{"measurement": "tyrosinase activity versus control", "setting": "[1]; at 0.5 mM (tested 0.1, 0.25, 0.5 mM)", "value": "elevated"}, {"measurement": "tyrosinase activity versus control", "setting": "[1]; at 0.1 and 0.25 mM", "value": "decreased activity"}]}]}
